# Source: PMC11222350, “Preclinical evaluation of [^18F]FP-CIT, the radiotracer targeting dopamine transporter for diagnosing Parkinson’s disease: pharmacokinetic and efficacy analysis” (EJNMMI Research, 2024)
# “And” between values parts separate entries of the source, which are not always exact repeats. Equal entries are not always repeated.
# Experiments:
# dopamine transporter [1] = molecular target: T1, dopamine transporter (Rattus norvegicus, UniProt P23977); assay: Animal PET/CT imaging of [^18F]FP-CIT in the 6-OHDA-induced rat model; format: in vivo, Sprague–Dawley rats; settings: for SUV of lesion site uptake: 37 MBq i.v.
# T1 construct: from tissue; host or cells: striatum of living Sprague-Dawley rats (in vivo PET/CT)
# Method: We induced the PD model in rats using 6-OHDA according to a previous study. Briefly, female Sprague–Dawley rats (group IV) were intraperitoneally pretreated with desipramine […] (12.5 mg/kg; 12.5 mg/mL). The rats were anesthetized with 3% isoflurane in oxygen, had their heads shaved, and were placed in a stereotactic frame. A lesion in the right striatum was induced by 6-OHDA injection (4 μg/μL, 2 μL/site in 0.2% ascorbic acid) into four coordinate sites (anterior–posterior (AP) + 1.3, + 0.4, − 0.4, and − 1.3 mm; medial–lateral (ML) − 2.6, − 3.0, − 4.2, and − 4.5 mm; and dorsal–ventral (DV) − 5.0 mm) using a 26G Hamilton syringe at a rate of 1 μL/min (n = 3). The syringe was withdrawn slowly 5 min after the injection, and the wound was sutured. The surgical procedure in the sham group was also performed in the same manner using […] in normal saline instead of 6-OHDA (n = 3). All of the rats were randomly assigned to PD and sham model groups.
# To evaluate the uptake targeting efficacy in the striatum, animal PET/CT imaging of [^18F]FP-CIT was performed in the same week following the behavioral tests on the group IV 6-OHDA PD model (PD model and sham model, n = 3 per group). PET/CT images were acquired using nanoScan® PET/CT (Mediso Medical Imaging Systems, Budapest, Hungary). PET image acquisition was performed as previously described. Rats were anesthetized with 2% isoflurane in oxygen, and 37 MBq of [^18F]FP-CIT in 1 mL of saline was intravenously injected via the tail vein using a syringe pump (Pump Elite 11, Harvard Apparatus, USA) over 1 min. Dynamic PET scanning was performed for 60 min with 24 frames ([…], 3 × 60, 4 × 300, and 3 × 600 s). Image scans were acquired in the energy window of 400–600 keV. All images were reconstructed using a three-dimensional ordered subset expectation maximization (3D-OSEM) algorithm with four iterations and six subsets. For attenuation correction and anatomical reference, CT imaging was performed immediately after PET using a 50 kVp of X-ray voltage with 0.16 mAs.
# To define the anatomical volumes of interest (VOIs), MR scans were obtained on a 31 cm horizontal-bore Agilent 9.4T scanner (Agilent Technologies, Santa Clara, CA, USA) using a 4-channel array mouse head surface coil following PET/CT imaging (Rapid Biomedical GmbH, Rimpar, Germany) (PD model and sham model, n = 3 each). […] The respiratory rates of the rats were monitored using an MR-compatible physiological monitoring and gating system during image acquisition (SA Instruments Inc., USA).
# Each PET image was co-registered with the raw MR image to compare the regional [^18F]FP-CIT uptake in the striatum. […] The obtained uptake value, represented as the standardized uptake value (SUV), was determined for each VOI. […]
# dopamine transporter [2] = settings: PET scanning; cited from earlier work
# dopamine transporter [3] = molecular target: T1, dopamine transporter; assay: Correlation between [^18F]FP-CIT PET uptake and tyrosine hydroxylase IHC; format: in vivo, Sprague–Dawley rats; settings: Pearson
# Method: After MR and PET/CT studies, group IV rats were anesthetized with 3.5% isoflurane and fixed by intracardial perfusion with 0.9% saline, followed by 4% paraformaldehyde, replacing the blood in the brain. The brains were extracted and post-fixed in 4% paraformaldehyde overnight at 4 °C. Subsequently, the samples were transferred to 30% sucrose at 4 °C until they sank to the bottom. Cryoprotected brains were embedded in optimal cutting temperature compound (Tissue-Tek; Sakura, Torrance, CA, USA) and sectioned in the coronal plane using a microtome (CM1950; Leica, Wetzlar, Germany) at a thickness of 30 μm. Free-floating brain sections were rinsed with PBS, treated with 3% hydrogen peroxide for 30 min, and then washed with PBS again. Sections were permeabilized with 0.3% Trioton-X-100 for 30 min and washed with PBS. […]
# IHC slide imaging was performed using a slide scanner (MoticEasyScan Pro 6; Motic, Kowloon, Hong Kong). The intensity of TH antibody binding was quantified by delineating regions of interest (ROI) for positive lesion and intact sites on the IHC images using ImageJ software. An average of four slides for each brain sample was analyzed. […]
# The correlation between [^18F]FP-CIT uptake and TH intensity was assessed, considering absolute values for each lesion and intact site in the striatum. Additionally, lesion/intact ratio values for each study were calculated and analyzed. […]
# [4] = Excretion study of [^18F]FP-CIT in urine and feces of normal mice; format: in vivo, C57BL/6 mice
# Method: For excretion analysis, male C57BL/6 mice (group II) were injected with 37 MBq of [^18F]FP-CIT in the same way described above. The mice were kept in separate cages for urine and feces collection at different time points (1, 2, 3, 4, 5, and 6 h after injection; n = 6 each). Six pieces of absorbent paper were placed in the cages to ensure that all urine samples were absorbed into the paper when the test animals excreted the urine. Fecal samples were collected using felt. The urine remaining in the bladder was collected using a syringe after the mice were sacrificed at the endpoints. The samples collected at each time point were measured using a dose calibrator (CRC-127R; Capintec, Florham Park, NJ, USA). Decay correction of the radioactivity indicated on the dose calibrator at the relevant time points was performed.
# T1 sequence (P23977 whole entry): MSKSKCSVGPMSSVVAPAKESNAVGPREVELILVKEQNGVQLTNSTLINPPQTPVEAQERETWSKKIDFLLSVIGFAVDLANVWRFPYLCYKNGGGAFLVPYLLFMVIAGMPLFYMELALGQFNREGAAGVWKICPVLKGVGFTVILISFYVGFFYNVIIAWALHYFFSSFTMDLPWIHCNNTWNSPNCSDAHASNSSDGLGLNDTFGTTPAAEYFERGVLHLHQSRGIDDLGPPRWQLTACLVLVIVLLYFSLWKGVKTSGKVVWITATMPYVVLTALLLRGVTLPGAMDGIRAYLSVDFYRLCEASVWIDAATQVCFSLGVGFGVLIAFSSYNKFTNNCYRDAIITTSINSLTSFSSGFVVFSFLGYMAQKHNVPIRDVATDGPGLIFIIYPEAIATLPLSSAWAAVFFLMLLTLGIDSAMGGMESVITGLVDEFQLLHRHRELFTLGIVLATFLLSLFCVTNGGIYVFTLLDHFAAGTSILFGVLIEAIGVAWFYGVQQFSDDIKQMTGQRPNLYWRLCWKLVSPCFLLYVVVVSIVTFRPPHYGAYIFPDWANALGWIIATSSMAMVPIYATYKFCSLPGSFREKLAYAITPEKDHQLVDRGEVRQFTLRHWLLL
structure (smiles),measurement,setting,value
"COC(=O)[C@H]1[C@@H](c2ccc(I)cc2)C[C@@H]2CC[C@H]1N2CCCF [[^18F]FP-CIT, N-(3-fluoropropyl)-2β-carboxymethoxy-3β-(4-iodophenyl) nortropane]",time at which transient equilibrium tendency appeared in TACs,"dopamine transporter [1]; intact striatum, post-injection",approximately 5 min
same,"reduction of lesion site SUV, PD group vs sham group",dopamine transporter [1]; striatum lesion site,55.4%
same,SUV of lesion site uptake,"dopamine transporter [1]; striatum lesion site, PD group (6-OHDA)",1.85 ± 0.13
same,SUV of lesion site uptake,"dopamine transporter [1]; striatum lesion site, sham group",4.15 ± 0.86
same,time of transient equilibrium in time activity curves (specific binding to the striatum),dopamine transporter [2],60 to 100 min
same,"correlation coefficient (R) between animal PET/CT uptake and TH intensity by IHC, absolute values","dopamine transporter [3]; each lesion and intact site in the striatum, n = 12",0.803
same,"correlation coefficient (R) between animal PET/CT uptake and TH intensity by IHC, lesion/intact ratio values",dopamine transporter [3]; n = 6,0.973
same,Accumulated excretion radioactivity (Decay corrected),"[4]; 1 h, Mean ± SD of 6 mice (group II)",0.03 ± 0.04 mCi
same,Accumulated excretion radioactivity (Decay corrected),"[4]; 1 h, individual mice no. 1-6 (group II), 37 MBq i.v.",0.00 mCi and 0.01 mCi and 0.10 mCi and 0.03 mCi and 0.02 mCi
same,Accumulated excretion radioactivity (Decay corrected),"[4]; 2 h, Mean ± SD of 6 mice (group II)",0.05 ± 0.04 mCi
same,Accumulated excretion radioactivity (Decay corrected),"[4]; 2 h, individual mice no. 1-6 (group II), 37 MBq i.v.",0.07 mCi and 0.01 mCi and 0.11 mCi and 0.02 mCi and 0.05 mCi
same,Accumulated excretion radioactivity (Decay corrected),"[4]; 3 h, Mean ± SD of 6 mice (group II)",0.06 ± 0.05 mCi
same,Accumulated excretion radioactivity (Decay corrected),"[4]; 3 h, individual mice no. 1-6 (group II), 37 MBq i.v.",0.07 mCi and 0.01 mCi and 0.15 mCi and 0.02 mCi and 0.08 mCi and 0.05 mCi
same,Accumulated excretion radioactivity (Decay corrected),"[4]; 4 h, Mean ± SD of 6 mice (group II)",0.08 ± 0.06 mCi
same,Accumulated excretion radioactivity (Decay corrected),"[4]; 4 h, individual mice no. 1-6 (group II), 37 MBq i.v.",0.11 mCi and 0.01 mCi and 0.16 mCi and 0.02 mCi and 0.09 mCi and 0.08 mCi
same,Accumulated excretion radioactivity (Decay corrected),"[4]; 5 h, Mean ± SD of 6 mice (group II)",0.09 ± 0.05 mCi
same,Accumulated excretion radioactivity (Decay corrected),"[4]; 5 h, individual mice no. 1-6 (group II), 37 MBq i.v.",0.11 mCi and 0.04 mCi and 0.17 mCi and 0.02 mCi and 0.09 mCi and 0.08 mCi
same,Accumulated excretion radioactivity (Decay corrected),"[4]; 6 h, Mean ± SD of 6 mice (group II)",0.09 ± 0.05 mCi
same,Accumulated excretion radioactivity (Decay corrected),"[4]; 6 h, individual mice no. 1-6 (group II), 37 MBq i.v.",0.12 mCi and 0.04 mCi and 0.17 mCi and 0.02 mCi and 0.10 mCi
same,Excretion ratio,"[4]; till 6 h, individual mice no. 1-6 (group II)",26.99% and 14.17% and 31.89% and 6.20% and 22.94% and 26.58%
